Measured values reported in ChEMBL document CHEMBL1201862, “PubChem BioAssay data set” (2004).
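Briefly, cells in 96-well plates were exposed to five compound concentrations for 48 h, and endpoints were estimated by linear interpolation. GI50 = concentration required for 50% inhibition of growth.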 Calls of active or inactive are those of the source. Rule as the data show it: active = GI50 up to about 1.1 µM and inactive = higher.

Assays:
Assay in all cases: inhibition of tumour cell growth, NCI panel, 48 h
[1] = system: SF-295
[2] = system: HCC 2998
[3] = system: UACC-257
[4] = system: ACHN
[5] = system: U-251
[6] = system: HOP-92
[7] = system: CCRF-CEM
[8] = system: LOX IMVI
[9] = system: KM12
[10] = system: HOP-62
[11] = system: A549
[12] = system: MDA-N
[13] = system: NCI/ADR-RES
[14] = system: SNB-75
[15] = system: MDA-MB-231
[16] = system: SF-539
[17] = system: NCI-H23
[18] = system: MDA-MB-435
[19] = system: DU-145
[20] = system: SN12C
[21] = system: SK-MEL-5
[22] = system: SNB-19
[23] = system: OVCAR-3
[24] = system: RXF 393
[25] = system: SR
[26] = system: 786-0
[27] = system: EKVX
[28] = system: OVCAR-5
[29] = system: TK-10
[30] = system: NCI-H226
[31] = system: UO-31
[32] = system: BT-549
[33] = system: HCT-15
[34] = system: PC-3
[35] = system: IGROV-1
[36] = system: SK-MEL-28
[37] = system: HL-60
[38] = system: NCI-H460
[39] = system: OVCAR-4
[40] = system: MCF7
[41] = system: SK-MEL-2
[42] = system: MOLT-4
[43] = system: SK-OV-3
[44] = system: SW-620
[45] = system: M14
[46] = system: UACC-62
[47] = system: Malme-3M
[48] = system: Hs-578T
[49] = system: K562
[50] = system: HT-29
[51] = system: HCT-116
[52] = system: OVCAR-8
[53] = system: SF-268
[54] = system: COLO 205
[55] = system: RPMI-8226
[56] = system: NCI-H522
[57] = system: A498
[58] = system: CAKI-1
[59] = system: T47D

O=C(ON=c1c2ccccc2ccc2ccccc12)c1cc([N+](=O)[O-])cc([N+](=O)[O-])c1
GI50 [1]: 43.8 µM (inactive)
GI50 [2]: 75.2 µM (inactive)
GI50 [3]: > 100 µM (inactive)
GI50 [4]: 45.4 µM (inactive)
GI50 [5]: 70.6 µM (inactive)
GI50 [6]: 23.1 µM (inactive)
GI50 [7]: 25.5 µM (inactive)
GI50 [8]: 90.2 µM (inactive)
GI50 [9]: 49 µM (inactive)
GI50 [10]: > 100 µM (inactive)
GI50 [11]: 49.8 µM (inactive)
GI50 [12]: 83.8 µM (inactive)
GI50 [13]: 48.4 µM (inactive)
GI50 [14]: 40.8 µM (inactive)
GI50 [15]: > 100 µM (inactive)
GI50 [16]: > 100 µM (inactive)
GI50 [17]: > 100 µM (inactive)
GI50 [18]: > 100 µM (inactive)
GI50 [19]: 97.3 µM (inactive)
GI50 [20]: 67.1 µM (inactive)
GI50 [21]: 50.5 µM (inactive)
GI50 [22]: > 100 µM (inactive)
GI50 [23]: 94.6 µM (inactive)
GI50 [24]: > 100 µM (inactive)
GI50 [25]: 35.2 µM (inactive)
GI50 [26]: > 100 µM (inactive)
GI50 [27]: 89.9 µM (inactive)
GI50 [28]: > 100 µM (inactive)
GI50 [29]: > 100 µM (inactive)
GI50 [30]: > 100 µM (inactive)
GI50 [31]: 48 µM (inactive)
GI50 [32]: 54.8 µM (inactive)
GI50 [33]: 53 µM
GI50 [34]: 41.8 µM (inactive)
GI50 [35]: > 100 µM (inactive)
GI50 [36]: > 100 µM (inactive)
GI50 [37]: 28 µM (inactive)
GI50 [38]: > 100 µM (inactive)
GI50 [39]: 38.2 µM (inactive)
GI50 [40]: 65 µM (inactive)
GI50 [41]: > 100 µM (inactive)
GI50 [42]: 31.8 µM (inactive)
GI50 [43]: > 100 µM (inactive)
GI50 [44]: > 100 µM (inactive)
GI50 [45]: > 100 µM (inactive)
GI50 [46]: 63.4 µM (inactive)
GI50 [47]: 16.8 µM (inactive)
GI50 [48]: 76.7 µM (inactive)
GI50 [49]: 21.8 µM (inactive)
GI50 [50]: 94.4 µM (inactive)
GI50 [51]: 87.3 µM (inactive)
GI50 [52]: 94.8 µM (inactive)
GI50 [53]: > 100 µM (inactive)
GI50 [54]: > 100 µM (inactive)
GI50 [55]: 48.5 µM (inactive)

CNC(=O)N(CCC#N)CCN(C(=O)NC)c1ccccc1
GI50 [1]: > 100 µM (inactive)
GI50 [2]: > 100 µM (inactive)
GI50 [3]: > 100 µM (inactive)
GI50 [4]: > 100 µM (inactive)
GI50 [5]: > 100 µM (inactive)
GI50 [6]: > 100 µM (inactive)
GI50 [7]: > 100 µM (inactive)
GI50 [8]: > 100 µM (inactive)
GI50 [9]: > 100 µM (inactive)
GI50 [10]: > 100 µM (inactive)
GI50 [11]: > 100 µM (inactive)
GI50 [12]: > 100 µM (inactive)
GI50 [13]: > 100 µM (inactive)
GI50 [56]: > 100 µM (inactive)
GI50 [14]: 65 µM (inactive)
GI50 [15]: > 100 µM (inactive)
GI50 [16]: > 100 µM (inactive)
GI50 [17]: > 100 µM (inactive)
GI50 [18]: > 100 µM (inactive)
GI50 [57]: > 100 µM (inactive)
GI50 [19]: > 100 µM (inactive)
GI50 [20]: > 100 µM (inactive)
GI50 [21]: > 100 µM (inactive)
GI50 [22]: > 100 µM (inactive)
GI50 [23]: > 100 µM (inactive)
GI50 [24]: > 100 µM (inactive)
GI50 [58]: > 100 µM (inactive)
GI50 [25]: > 100 µM (inactive)
GI50 [26]: > 100 µM (inactive)
GI50 [27]: > 100 µM (inactive)
GI50 [28]: > 100 µM (inactive)
GI50 [29]: > 100 µM (inactive)
GI50 [30]: > 100 µM (inactive)
GI50 [31]: > 100 µM (inactive)
GI50 [32]: > 100 µM (inactive)
GI50 [33]: > 100 µM
GI50 [34]: > 100 µM (inactive)
GI50 [59]: > 100 µM (inactive)
GI50 [35]: > 100 µM (inactive)
GI50 [36]: > 100 µM (inactive)
GI50 [38]: > 100 µM (inactive)
GI50 [39]: > 100 µM (inactive)
GI50 [40]: > 100 µM (inactive)
GI50 [41]: > 100 µM (inactive)
GI50 [42]: > 100 µM (inactive)
GI50 [43]: > 100 µM (inactive)
GI50 [44]: > 100 µM (inactive)
GI50 [45]: > 100 µM (inactive)
GI50 [46]: > 100 µM (inactive)
GI50 [47]: > 73.8 µM (inactive)
GI50 [49]: > 100 µM (inactive)
GI50 [50]: > 100 µM (inactive)
GI50 [51]: > 100 µM (inactive)
GI50 [52]: > 100 µM (inactive)
GI50 [53]: > 100 µM (inactive)
GI50 [54]: > 100 µM (inactive)
GI50 [55]: > 100 µM (inactive)
